Assay results from article PMC3646166, “Comparison of Aqueous and 1-Octanol Solubility as well as Liquid–Liquid Distribution of Acyclovir Derivatives and Their Complexes with Hydroxypropyl-β-Cyclodextrin” (Journal of Solution Chemistry, 2013).
Converted amounts (≈) assume the structure as drawn. Where two headings read alike, the source gives them in different places.

Legend:
[1] = Solubility in water or 1-octanol (saturated solutions, UV-Vis); format: physicochemical; settings: for solubility: thermodynamic from solid, water
Protocol: The sample of substance examined (10 mg or 80 mg for 6-Me-TACV) was placed in a glass ampoule and double-distilled, deionized water (Millipore, Elix 5 purifier), or pure anhydrous 1-octanol (Sigma 99 %) was added. To attain thermodynamic equilibrium, the solute and the solvent were mixed continuously for a minimum of 4 days at a speed of 25 rpm. After the experiment was completed, the sample was centrifuged at 40,000 rpm for 40 min at 25 ± 0.1 °C, the supernatant liquid was collected, diluted, and its concentration determined with a UV–Vis (Varian Carry IE) spectrophotometer. The experiments were repeated at least three times for each solubility.

[2] = Solubility in buffered cyclodextrin solutions (excess method of Higuchi and Connors); format: physicochemical; set-up: Stability constant K s of HP-β-CD complex: unit not given here; settings: for Correlation parameter a (Eq. 2, Cs = a + b·CCD) / Correlation parameter b (Eq. 2, Cs = a + b·CCD): buffered HP-β-CD solutions; for solubility / solubility at 7 days: thermodynamic from solid, read-out: Solubility, C 6-Ph-O-Me-TACV
Protocol: Solubilities of the studied compounds was ensured according to the excess method of Higuchi and Connors. […] An excess amount of compounds 4-9 and 11-12 was added to 1.5 mL of aqueous phosphate buffer (concentration of buffer was equal 0.067 mol·dm^-3) solutions, (pH = 5.5 or 7.0) containing various concentration of HP-β-CD. The cyclodextrin concentration changed in the range of 10^-3 to 2 × 10^-2 mol·dm^-3. The suspensions were shaken in screw-capped plastic vials in a water bath thermostat with the volume of 60 dm^3 (home made apparatus by IChF PAN) at 25 and 37 °C. After 7 days equilibrium was reached and then the suspensions were centrifuged and the absorbance of the studied compounds was measured by UV-Vis spectrophotometry using a Shimadzu UV 2401 PC Spectrometer equipped with a thermostatically controlled cell compartment. During the measurement of absorbance, a buffered-solution of HP-β-CD, of the same concentration as in the studied solution, was always put as the reference. The average values of at least three independent determinations of the absorbance were used for calculation of the concentrations of the particular acyclovir derivatives. […] The main reason for the low solubility of tricyclic acyclovir derivatives with aromatic groups in water is the high hydrophobicity of these substituents. Use of cyclodextrins, which can include aromatic groups into their cavity, may enhance the aqueous solubility of such compounds. For this purpose we used several cyclodextrins and hydroxypropyl-β-cyclodextrin was chosen as being more efficient for complexating the tricyclic acyclovir derivatives. The investigations were performed, for chosen compounds, in various cyclodextrin HP-β-CD, buffered solutions (pH = 5.5 and 7.0) at 25 and 37 °C. […] Values of the correlation parameters a and b for tricyclic acyclovir derivatives complexed by cyclodextrin are presented in Table 3. […] The stability constants of the inclusion complexes between HP-β-CD and acyclovir derivatives have been calculated according to the Higuchi-Connors method using:3 K=b/C0(1-b) where C 0 is the solubility of the sample in solutions without cyclodextrin, obtained by determination of saturated solution concentration of acyclovir derivative solutions. […] These two values can differ, but in our study are very close to each other.

[3] = Extraction experiments, 1-octanol-water partition coefficient; format: physicochemical; settings: 25 °C, read-out: Partition coefficient 1-octanol–water, P oc/w (converted)
Protocol: The equipment described above was also used for the determination of the 1-octanol-water partition coefficients. […] The partition coefficient was evaluated as:1 Poc/w=Coc/Cw where C oc and C w are the molar concentrations of the solute in the 1-octanol and water phases, respectively. The correctness of the P oc/w value of each compound was verified by checking the mass balance of the starting amount of the substance and the total amount of the substance partitioned between the two phases.

[4] = Solubility in buffered cyclodextrin solutions (excess method of Higuchi and Connors); format: physicochemical; settings: phosphate buffer saturated with 1-octanol, aqueous buffer, thermodynamic from solid, pH = 7.0, 37 °C, read-out: Solubility, C 6-Ph-O-Me-TACV
[5] = tested on: HSV-1 and HSV-2 viruses; set-up: method as in PMID 7932543; settings: towards HSV-1 and HSV-2 viruses ref 8; cited from earlier work

Solubility ratio in 1-octanol and water, C oc/C w ([1]; 25 °C): 7.62
Solubility ratio in 1-octanol saturated with water and water saturated with 1-octanol, C ocw/C woc ([1]; 25 °C): 2.84
solubility ([1]; 25 °C (Table 1), read-out: Solubility in water, C w): 53 µM (≈ 18.8 µg/mL)
solubility ([1]; water saturated with 1-octanol, 25 °C, read-out: Solubility in water saturated with 1-octanol, C woc): 135 µM (≈ 48 µg/mL)
solubility ([1]; 35 °C, read-out: Aqueous solubility, C w): 144 µM (≈ 51.2 µg/mL)
solubility ([1]; 45 °C, read-out: Aqueous solubility, C w): 465 µM (≈ 165 µg/mL)
Correlation parameter a (Eq. 2, Cs = a + b·CCD) ([2]; pH = 5.5, 25 °C): 5.23 × 10^−5
Correlation parameter b (Eq. 2, Cs = a + b·CCD) ([2]; pH = 5.5, 25 °C): 1.00 × 10^−2
Correlation parameter a (Eq. 2, Cs = a + b·CCD) ([2]; pH = 5.5, 37 °C): 9.95 × 10^−5
Correlation parameter b (Eq. 2, Cs = a + b·CCD) ([2]; pH = 5.5, 37 °C): 1.41 × 10^−2
Correlation parameter a (Eq. 2, Cs = a + b·CCD) ([2]; pH = 7.0, 25 °C): 5.68 × 10^−5
Correlation parameter b (Eq. 2, Cs = a + b·CCD) ([2]; pH = 7.0, 25 °C): 1.06 × 10^−2
Correlation parameter a (Eq. 2, Cs = a + b·CCD) ([2]; pH = 7.0, 37 °C): 1.37 × 10^−4
Correlation parameter b (Eq. 2, Cs = a + b·CCD) ([2]; pH = 7.0, 37 °C): 1.30 × 10^−2
solubility ([2]; organic solvent or mixture, 1-Octanol saturated with buffer, pH = 5.5, 25 °C): 473 µM (≈ 168 µg/mL)
solubility ([2]; organic solvent or mixture, 1-Octanol saturated with buffer, pH = 5.5, 37 °C): 741 µM (≈ 263 µg/mL)
solubility at 7 days ([2]; organic solvent or mixture, 1-Octanol saturated with buffer, pH = 7.0, 25 °C): 485 µM (≈ 172 µg/mL)
solubility at 7 days ([2]; organic solvent or mixture, 1-Octanol saturated with buffer, pH = 7.0, 37 °C): 882 µM (≈ 313 µg/mL)
Stability constant K s of HP-β-CD complex ([2]; pH = 5.5, 25 °C): 213 (±6) dm·mol^−1
Stability constant K s of HP-β-CD complex ([2]; pH = 5.5, 37 °C): 144 (±5)
Stability constant K s of HP-β-CD complex ([2]; pH = 7, 25 °C): 189 (±6) dm·mol^−1
Stability constant K s of HP-β-CD complex ([2]; pH = 7, 37 °C): 96 (±4)
solubility at 7 days ([2]; phosphate buffer saturated with 1-octanol, aqueous buffer, Buffer saturated with 1-octanol, pH = 5.5, 25 °C): 74.2 µM (≈ 26.4 µg/mL)
solubility at 7 days ([2]; phosphate buffer saturated with 1-octanol, aqueous buffer, Buffer saturated with 1-octanol, pH = 5.5, 37 °C): 127 µM (≈ 45.1 µg/mL)
solubility at 7 days ([2]; phosphate buffer saturated with 1-octanol, aqueous buffer, Buffer saturated with 1-octanol, pH = 7.0, 25 °C): 58.7 µM (≈ 20.9 µg/mL)
solubility at 7 days ([2]; phosphate buffer saturated with 1-octanol, aqueous with cosolvent or surfactant or cyclodextrin, Buffer saturated with 1-octanol + HP-β-CD (2 × 10^−2 mol·dm^−3), pH = 5.5, 25 °C): 40.3 µM
solubility at 7 days ([2]; phosphate buffer saturated with 1-octanol, aqueous with cosolvent or surfactant or cyclodextrin, Buffer saturated with 1-octanol + HP-β-CD (2 × 10^−2 mol·dm^−3), pH = 5.5, 37 °C): 77 µM
solubility at 7 days ([2]; phosphate buffer saturated with 1-octanol, aqueous with cosolvent or surfactant or cyclodextrin, Buffer saturated with 1-octanol + HP-β-CD (2 × 10^−2 mol·dm^−3), pH = 7.0, 25 °C): 40.3 µM
solubility at 7 days ([2]; phosphate buffer saturated with 1-octanol, aqueous with cosolvent or surfactant or cyclodextrin, Buffer saturated with 1-octanol + HP-β-CD (2 × 10^−2 mol·dm^−3), pH = 7.0, 37 °C): 80.6 µM
solubility at 7 days ([2]; phosphate buffer with HP-β-CD, aqueous with cosolvent or surfactant or cyclodextrin, Buffer + HP-β-CD (2 × 10^−2 mol·dm^−3), pH = 5.5, 25 °C): 244 µM
solubility at 7 days ([2]; phosphate buffer with HP-β-CD, aqueous with cosolvent or surfactant or cyclodextrin, Buffer + HP-β-CD (2 × 10^−2 mol·dm^−3), pH = 5.5, 37 °C): 374 µM
solubility at 7 days ([2]; phosphate buffer with HP-β-CD, aqueous with cosolvent or surfactant or cyclodextrin, Buffer + HP-β-CD (2 × 10^−2 mol·dm^−3), pH = 7.0, 25 °C): 265 µM
solubility at 7 days ([2]; phosphate buffer with HP-β-CD, aqueous with cosolvent or surfactant or cyclodextrin, Buffer + HP-β-CD (2 × 10^−2 mol·dm^−3), pH = 7.0, 37 °C): 391 µM
solubility at 7 days ([2]; phosphate buffer, aqueous buffer, Buffer, pH = 5.5, 25 °C): 48.2 µM (≈ 17.1 µg/mL)
solubility at 7 days ([2]; phosphate buffer, aqueous buffer, Buffer, pH = 5.5, 37 °C): 99.4 µM (≈ 35.3 µg/mL)
solubility at 7 days ([2]; phosphate buffer, aqueous buffer, Buffer, pH = 7.0, 25 °C): 55 µM (≈ 19.5 µg/mL)
solubility at 7 days ([2]; phosphate buffer, aqueous buffer, Buffer, pH = 7.0, 37 °C): 136 µM (≈ 48.3 µg/mL)
logP at 2 days [3]: 0.386
solubility at 7 days [4]: 139 µM (≈ 49.4 µg/mL)
SMILES: COc1ccc(-c2cn3c(=O)c4ncn(COCCO)c4nc3[nH]2)cc1 [Compound 11]
Antiherpetic activity relative to parent acyclovir (concentrations required to reduce virus-induced cytopathicity by 50 %) [5]: 2–7 times higher
